Experimental data as given in US9809582B2, “Aminoester derivatives” (CHIESI FARMACEUTICI S.p.A., priority 2015, dated 2017).
Like-named read-outs stand apart in the source and are kept apart here.

Columns and labels:
Human M3 receptor = Human M3 receptor (Homo sapiens (Human), UniProt P20309); assay: M3 receptor radioligand binding assay
Protocol: M3 Receptor Radioligand Binding Assay:
The assay is carried out in 96-well polypropylene plates in a volume of 250 μl. […] The final assay concentration of DMSO is 0.5% (v/v). The plates are sealed and incubated for 2 h at room temperature on an orbital shaker (slow speed). Membranes are harvested onto 96-well unifilter GF/C filter plates pre-treated with 0.5% polyethyleneimine (v/v), using a filter manifold, washed four times with […] of assay buffer. The plates are dried before addition of 50 μl of microscint-0, sealed then read in a Trilux Microbeta scintillation counter. IC50 values are determined from competition curves using a non-linear curve fitting program. Ki values are calculated from IC50 values by the Cheng and Prusoff equation.

Human recombinant PDE4B2 = Human recombinant PDE4B2 (Homo sapiens (Human), UniProt Q07343); assay: PDE4B2 HTRF assay; format: biochemical
Sequence of Human recombinant PDE4B2 (Q07343 other isoform, or with tags, fused parts or gaps): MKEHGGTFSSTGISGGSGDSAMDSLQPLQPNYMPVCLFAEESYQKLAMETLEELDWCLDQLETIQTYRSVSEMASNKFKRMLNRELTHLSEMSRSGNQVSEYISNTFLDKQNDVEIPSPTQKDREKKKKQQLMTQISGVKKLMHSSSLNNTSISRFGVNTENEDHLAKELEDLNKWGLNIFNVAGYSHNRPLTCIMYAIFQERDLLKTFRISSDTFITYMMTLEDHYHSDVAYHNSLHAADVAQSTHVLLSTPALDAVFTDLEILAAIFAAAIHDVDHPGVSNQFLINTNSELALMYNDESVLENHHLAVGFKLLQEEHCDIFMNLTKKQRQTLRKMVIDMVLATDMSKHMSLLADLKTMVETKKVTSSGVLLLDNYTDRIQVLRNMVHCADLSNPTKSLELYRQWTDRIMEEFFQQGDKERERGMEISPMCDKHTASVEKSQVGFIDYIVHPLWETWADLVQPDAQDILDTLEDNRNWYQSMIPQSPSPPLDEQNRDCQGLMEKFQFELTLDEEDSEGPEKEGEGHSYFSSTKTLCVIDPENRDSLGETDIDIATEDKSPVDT
Protocol: PDE4B2 activity is detected using the LANCE Ultra cAMP homogeneous time resolved fluorescence resonance energy transfer (TR-FRET) assay from Perkin Elmer. The assay is based on the competition between the europium (Eu) chelate-labeled cAMP tracer and sample cAMP for binding sites on cAMP-specific monoclonal antibodies (mAb) labelled with the ULight™ dye. The assay is carried out in 384-well low volume plates in a volume of 10 μl. Human recombinant PDE4B2 (80 pM) is incubated for 2 h with 3 nM cAMP in buffer containing 1×HBSS, 5 mM HEPES, 3 mM MgCl2, 0.1% BSA, pH 7.4 with or without test compounds. The enzymatic reactions are efficiently stopped by the addition of 500 μM IBMX present in the combined Stop/Detection buffer containing europium (Eu) chelate-labeled cAMP tracer and cAMP-specific monoclonal antibodies (mAb) labelled with the ULight™ dye. […] IC50 values are determined from competition curves using a non-linear curve fitting program.

[1] = M3 Receptor radioligand binding assay, read-out: M3 IC50 Activity
[2] = PDE4B2 HTRF assay, read-out: PDE4B2 IC50 Activity

Sequence of Human M3 receptor (P20309 whole entry): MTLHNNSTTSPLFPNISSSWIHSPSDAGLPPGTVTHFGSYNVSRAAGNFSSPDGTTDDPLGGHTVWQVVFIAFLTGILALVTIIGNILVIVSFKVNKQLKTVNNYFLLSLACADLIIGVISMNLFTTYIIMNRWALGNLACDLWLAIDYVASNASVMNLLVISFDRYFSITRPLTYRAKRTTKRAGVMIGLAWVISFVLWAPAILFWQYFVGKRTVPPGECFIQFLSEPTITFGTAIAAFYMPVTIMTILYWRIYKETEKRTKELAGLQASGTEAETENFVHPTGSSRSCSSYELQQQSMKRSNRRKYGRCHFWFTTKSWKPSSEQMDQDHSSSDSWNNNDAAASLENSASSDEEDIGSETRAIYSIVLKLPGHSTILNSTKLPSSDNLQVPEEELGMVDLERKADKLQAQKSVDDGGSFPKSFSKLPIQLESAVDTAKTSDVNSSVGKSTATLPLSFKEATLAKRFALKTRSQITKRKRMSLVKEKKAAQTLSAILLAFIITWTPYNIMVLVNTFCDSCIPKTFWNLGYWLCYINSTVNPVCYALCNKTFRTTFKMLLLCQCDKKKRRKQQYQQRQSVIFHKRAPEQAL

Row | Compound | IC50 (Human M3 receptor; M3 IC50 Activity) [nM] | IC50 (Human recombinant PDE4B2) [nM] | IC50 (Human M3 receptor; [1]) [nM] | further results
1 | COc1ccc([C@H](Cc2c(Cl)c[n+]([O-])cc2Cl)OC(=O)c2ccc(CNCC(C(=O)O[C@H]3CN4CCC3CC4)c3ccccc3)s2)cc1OC (single isomer, unassigned) [Example 20] | < 1 | 1 to 10 | – | –
2 | COc1ccc([C@H](Cc2c(Cl)c[n+]([O-])cc2Cl)OC(=O)c2ccc(CNCC(C(=O)O[C@H]3CN4CCC3CC4)c3ccccc3)s2)cc1OC (single isomer, unassigned) [Example 21] | 1 to 10 | – | – | IC50 (Human recombinant PDE4B2; read-out: PDE4B2 IC50 Activity): 1 to 10 nM
3 | COc1ccc([C@H](Cc2c(Cl)c[n+]([O-])cc2Cl)OC(=O)c2ccc(CNCC(C)(C(=O)OCCN(C)C)c3ccccc3)s2)cc1OC (single isomer, unassigned) [Example 28] | – | – | 10 to 100 | –
4 | COc1ccc([C@H](Cc2c(Cl)c[n+]([O-])cc2Cl)OC(=O)c2ccc(CNC3CC(C(=O)OC4CCN(C)CC4)(c4ccccc4)C3)s2)cc1OC (single isomer, unassigned) [Example 34] | – | – | 10 to 100 | IC50 (Human recombinant PDE4B2; [2]): 1 to 10 nM
5 | COc1ccc([C@H](Cc2c(Cl)c[n+]([O-])cc2Cl)OC(=O)c2ccc(CNC3CC(C(=O)OC4CCN(C)CC4)(c4ccccc4)C3)s2)cc1OC (single isomer, unassigned) [Example 35] | – | – | 1 to 10 | IC50 (Human recombinant PDE4B2; [2]): 1 to 10 nM
6 | COc1ccc([C@H](Cc2c(Cl)c[n+]([O-])cc2Cl)OC(=O)c2ccc(CNCC(C(=O)O[C@H]3CN4CCC3CC4)c3ccccc3)s2)cc1OC (stereo partly drawn) [Example 1, [(1S)-2-(3,5-dichloro-1-oxido-pyridin-1-ium-4-yl)-1-(3,4-dimethoxyphenyl)ethyl] 5-[[[3-oxo-2-phenyl-3-[(3R)-quinuclidin-3-yl]oxy-propyl]amino]methyl]thiophene-2-carboxylate] | 1 to 10 | 1 to 10 | – | –
7 | COc1ccc([C@H](Cc2c(Cl)c[n+]([O-])cc2Cl)OC(=O)c2ccc(CNCC(C(=O)O[C@H]3CN4CCC3CC4)c3ccccc3)cc2)cc1OC (stereo partly drawn) [Example 2, [(1S)-2-(3,5-dichloro-1-oxido-pyridin-1-ium-4-yl)-1-(3,4-dimethoxyphenyl)ethyl] 4-[[[3-oxo-2-phenyl-3-[(3R)-quinuclidin-3-yl]oxy-propyl]amino]methyl]benzoate] | 1 to 10 | 1 to 10 | – | –
8 | COc1ccc([C@H](Cc2c(Cl)c[n+]([O-])cc2Cl)OC(=O)c2ccc(CNCC(C(=O)O[C@@H]3CCN(C)C3)c3ccccc3)s2)cc1OC (stereo partly drawn) [Example 4, [(1S)-2-(3,5-dichloro-1-oxido-pyridin-1-ium-4-yl)-1-(3,4-dimethoxyphenyl)ethyl]-5-[[[3-[(3R)-1-methylpyrrolidin-3-yl]oxy-3-oxo-2-phenyl-propyl]amino]methyl]thiophene-2-carboxylate] | – | – | 10 to 100 | IC50 (Human recombinant PDE4B2; [2]): 1 to 10 nM
9 | COc1ccc([C@H](Cc2c(Cl)c[n+]([O-])cc2Cl)OC(=O)c2ccc(CNCC(C(=O)OC3CCN(C)CC3)c3ccccc3)s2)cc1OC (stereo partly drawn) [Example 5, [(1S)-2-(3,5-dichloro-1-oxido-pyridin-1-ium-4-yl)-1-(3,4-dimethoxyphenyl)ethyl] 5-[[[3-[(1-methyl-4-piperidyl)oxy]-3-oxo-2-phenyl-propyl]amino]methyl]thiophene-2-carboxylate] | – | – | 1 to 10 | –
10 | COc1ccc([C@H](Cc2c(Cl)c[n+]([O-])cc2Cl)OC(=O)c2ccc(CNCC(C)(C(=O)O[C@H]3CN4CCC3CC4)c3ccccc3)s2)cc1OC (stereo partly drawn) [Example 7, [(1S)-2-(3,5-dichloro-1-oxido-pyridin-1-ium-4-yl)-1-(3,4-dimethoxyphenyl)ethyl] 5-[[[2-methyl-3-oxo-2-phenyl-3-[(3R)-quinuclidin-3-yl]oxy-propyl]amino]methyl]thiophene-2-carboxylate] | – | – | – | IC50 (Human recombinant PDE4B2; read-out: PDE4B2 IC50 Activity): 1 to 10 nM
11 | COc1ccc([C@H](Cc2c(Cl)c[n+]([O-])cc2Cl)OC(=O)c2ccc(CNCC(C)(C(=O)OC3CCN(C)CC3)c3ccccc3)s2)cc1OC (stereo partly drawn) [Example 8, [(1S)-2-(3,5-dichloro-1-oxido-pyridin-1-ium-4-yl)-1-(3,4-dimethoxyphenyl)ethyl] 5-[[[2-methyl-3-[(1-methyl-4-piperidyl)oxy]-3-oxo-2-phenyl-propyl]amino]methyl]thiophene-2-carboxylate] | – | – | 10 to 100 | –
12 | COc1ccc([C@H](Cc2c(Cl)c[n+]([O-])cc2Cl)OC(=O)c2ccc(CNCC(C)(C(=O)OCCN(C)C)c3ccccc3)s2)cc1OC (stereo partly drawn) [Example 9, [(1S)-2-(3,5-dichloro-1-oxido-pyridin-1-ium-4-yl)-1-(3,4-dimethoxyphenyl)ethyl] 5-[[[3-(2-dimethylaminoethyloxy)-2-methyl-3-oxo-2-phenyl-propyl]amino]methyl]thiophene-2-carboxylate] | – | – | 10 to 100 | –
13 | COc1ccc([C@H](Cc2c(Cl)c[n+]([O-])cc2Cl)OC(=O)c2ccc(CN(C)CC(C)(C(=O)O[C@H]3CN4CCC3CC4)c3ccccc3)s2)cc1OC (stereo partly drawn) [Example 10, [(1S)-2-(3,5-dichloro-1-oxido-pyridin-1-ium-4-yl)-1-(3,4-dimethoxyphenyl)ethyl]-5-[[methyl-[2-methyl-3-oxo-2-phenyl-3-[(3R)-quinuclidin-3-yl]oxy-propyl]amino]methyl]thiophene-2-carboxylate] | 1 to 10 | 1 to 10 | – | –
14 | COc1ccc([C@H](Cc2c(Cl)c[n+]([O-])cc2Cl)OC(=O)c2ccc(CN3CCC(C(=O)O[C@H]4CN5CCC4CC5)(c4ccccc4)CC3)cc2)cc1OC [Example 11, [(3R)-quinuclidin-3-yl]-1-[[4-[(1S)-2-(3,5-dichloro-1-oxido-pyridin-1-ium-4-yl)-1-(3,4-dimethoxyphenyl)ethoxy]-carbonylphenyl]methyl]-4-phenyl-piperidine-4-carboxylate] | 10 to 100 | 1 to 10 | – | –
15 | COc1ccc([C@H](Cc2c(Cl)c[n+]([O-])cc2Cl)OC(=O)c2ccc(CCN3CCC(C(=O)O[C@H]4CN5CCC4CC5)(c4ccccc4)CC3)cc2)cc1OC [Example 12, [(3R)-quinuclidin-3-yl]-1-[2-[4-[(1S)-2-(3,5-dichloro-1-oxido-pyridin-1-ium-4-yl)-1-(3,4-dimethoxyphenyl)ethoxy]carbonylphenyl]ethyl]-4-phenyl-piperidine-4-carboxylate] | 1 to 10 | 1 to 10 | – | –
16 | COc1ccc([C@H](Cc2c(Cl)c[n+]([O-])cc2Cl)OC(=O)c2ccc(CN3CC(C(=O)O[C@H]4CN5CCC4CC5)(c4ccccc4)C3)s2)cc1OC [Example 15, [(3R)-quinuclidin-3-yl]-1-[[5-[(1S)-2-(3,5-dichloro-1-oxido-pyridin-1-ium-4-yl)-1-(3,4-dimethoxyphenyl)ethoxy]carbonyl-2-thienyl]methyl]-3-phenyl-azetidine-3-carboxylate] | – | 1 to 10 | – | –
17 | COc1ccc([C@H](Cc2c(Cl)c[n+]([O-])cc2Cl)OC(=O)c2ccc(CN3CC(C(=O)O[C@@H]4CCN(C)C4)(c4ccccc4)C3)s2)cc1OC [Example 16, [(3R)-1-methylpyrrolidin-3-yl] 1-[[5-[(1S)-2-(3,5-dichloro-1-oxido-pyridin-1-ium-4-yl)-1-(3,4-dimethoxyphenyl)ethoxy]carbonyl-2-thienyl]methyl]-3-phenyl-azetidine-3-carboxylate] | – | – | 1 to 10 | IC50 (Human recombinant PDE4B2; [2]): 1 to 10 nM
18 | COc1ccc([C@H](Cc2c(Cl)c[n+]([O-])cc2Cl)OC(=O)c2ccc(CNCC(C)(C(=O)OC3CCN(C)CC3)c3ccccc3)s2)cc1OC (stereo partly drawn) [Example 24, [(1S)-2-(3,5-dichloro-1-oxido-pyridin-1-ium-4-yl)-1-(3,4-dimethoxyphenyl)ethyl] 5-[[[2-methyl-3-[(1-methyl-4-piperidyl)oxy]-3-oxo-2-phenyl-propyl]amino]methyl]thiophene-2-carboxylate] | – | – | 10 to 100 | –
19 | COc1ccc([C@H](Cc2c(Cl)c[n+]([O-])cc2Cl)OC(=O)c2ccc(CN(C)CC(C)(C(=O)O[C@H]3CN4CCC3CC4)c3ccccc3)s2)cc1OC (stereo partly drawn) [Example 27, [(1S)-2-(3,5-dichloro-1-oxido-pyridin-1-ium-4-yl)-1-(3,4-dimethoxyphenyl)ethyl] 5-[[methyl-[2-methyl-3-oxo-2-phenyl-3-[(3R)-quinuclidin-3-yl]oxy-propyl]amino]methyl]thiophene-2-carboxylate] | – | – | – | IC50 (Human recombinant PDE4B2; read-out: PDE4B2 IC50 Activity): 1 to 10 nM
20 | COc1ccc([C@H](Cc2c(Cl)c[n+]([O-])cc2Cl)OC(=O)c2ccc(CNCC(C)(C(=O)O[C@H]3CN4CCC3CC4)c3ccccc3)s2)cc1OC (stereo partly drawn) [Example 30, [(1S)-2-(3,5-dichloro-1-oxido-pyridin-1-ium-4-yl)-1-(3,4-dimethoxyphenyl)ethyl] 5-[[[2-methyl-3-oxo-2-phenyl-3-[(3R)-quinuclidin-3-yl]oxy-propyl]amino]methyl]thiophene-2-carboxylate] | 1 to 10 | – | – | –
21 | COc1ccc([C@H](Cc2c(Cl)c[n+]([O-])cc2Cl)OC(=O)c2ccc(CNC3CC(C(=O)O[C@H]4CN5CCC4CC5)(c4ccccc4)C3)s2)cc1OC (stereo partly drawn) [Example 36, [(1S)-2-(3,5-dichloro-1-oxido-pyridin-1-ium-4-yl)-1-(3,4-dimethoxyphenyl)ethyl] 5-[[[3-phenyl-3-[(3R)-quinuclidin-3-yl]oxycarbonyl-cyclobutyl]amino]methyl]thiophene-2-carboxylate] | – | – | – | IC50 (Human recombinant PDE4B2; read-out: PDE4B2 IC50 Activity): 1 to 10 nM
